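Where inhibition never reached the appropriate level, the endpoint shown equals the highest concentration tested. Otherwise, values were interpolated linearly from a five-concentration, 48-hour dose response in 96-well plates. The concentration for 50% growth inhibition is given as GI50.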 Active and inactive are the calls of the source. No stated cut-off is given here; in the data, active = GI50 up to about 1.1 µM and inactive = higher.
Legend:
Experiment in all cases: NCI-60 cell line screen, 48 h
OVCAR-4 = tested on: OVCAR-4
BT-549 = tested on: BT-549
EKVX = tested on: EKVX
UACC-62 = tested on: UACC-62
SW-620 = tested on: SW-620
NCI/ADR-RES = tested on: NCI/ADR-RES
LOX IMVI = tested on: LOX IMVI
ACHN = tested on: ACHN
786-0 = tested on: 786-0
RXF 393 = tested on: RXF 393
HOP-92 = tested on: HOP-92
UO-31 = tested on: UO-31
SNB-75 = tested on: SNB-75
U-251 = tested on: U-251
HCT-116 = tested on: HCT-116
NCI-H460 = tested on: NCI-H460
SK-MEL-5 = tested on: SK-MEL-5
MCF7 = tested on: MCF7
SK-MEL-28 = tested on: SK-MEL-28
UACC-257 = tested on: UACC-257
OVCAR-5 = tested on: OVCAR-5
OVCAR-3 = tested on: OVCAR-3
RPMI-8226 = tested on: RPMI-8226
SK-OV-3 = tested on: SK-OV-3
MDA-N = tested on: MDA-N
HT-29 = tested on: HT-29
K562 = tested on: K562
SNB-19 = tested on: SNB-19
IGROV-1 = tested on: IGROV-1
KM12 = tested on: KM12
M14 = tested on: M14
HL-60 = tested on: HL-60
SK-MEL-2 = tested on: SK-MEL-2
Hs-578T = tested on: Hs-578T
T47D = tested on: T47D
TK-10 = tested on: TK-10
SF-295 = tested on: SF-295
SN12C = tested on: SN12C
HCC 2998 = tested on: HCC 2998
A549 = tested on: A549
NCI-H226 = tested on: NCI-H226
HCT-15 = tested on: HCT-15
MDA-MB-435 = tested on: MDA-MB-435
SF-268 = tested on: SF-268
NCI-H23 = tested on: NCI-H23
HOP-62 = tested on: HOP-62
SF-539 = tested on: SF-539
DU-145 = tested on: DU-145
NCI-H522 = tested on: NCI-H522
CCRF-CEM = tested on: CCRF-CEM
CAKI-1 = tested on: CAKI-1
OVCAR-8 = tested on: OVCAR-8
MDA-MB-231 = tested on: MDA-MB-231
PC-3 = tested on: PC-3
MOLT-4 = tested on: MOLT-4
Malme-3M = tested on: Malme-3M
COLO 205 = tested on: COLO 205
A498 = tested on: A498

SMILES: Cc1cc(O)c2c(c1O)C(=O)c1cccc(O)c1C2=O [ISLANDICIN]
- GI50 (OVCAR-4): > 100 µM (inactive)
- GI50 (BT-549): > 100 µM (inactive)
- GI50 (EKVX): > 100 µM (inactive)
- GI50 (UACC-62): > 100 µM (inactive)
- GI50 (SW-620): > 100 µM (inactive)
- GI50 (NCI/ADR-RES): > 100 µM (inactive)
- GI50 (LOX IMVI): > 100 µM (inactive)
- GI50 (ACHN): > 100 µM (inactive)
- GI50 (786-0): > 100 µM (inactive)
- GI50 (RXF 393): > 100 µM (inactive)
- GI50 (HOP-92): > 100 µM (inactive)
- GI50 (UO-31): > 100 µM (inactive)
- GI50 (SNB-75): 43.1 µM (inactive)
- GI50 (U-251): > 100 µM (inactive)
- GI50 (HCT-116): > 100 µM (inactive)
- GI50 (NCI-H460): > 100 µM (inactive)
- GI50 (SK-MEL-5): > 100 µM (inactive)
- GI50 (MCF7): > 100 µM (inactive)
- GI50 (SK-MEL-28): > 100 µM (inactive)
- GI50 (UACC-257): > 100 µM (inactive)
- GI50 (OVCAR-5): > 100 µM (inactive)
- GI50 (OVCAR-3): > 100 µM (inactive)
- GI50 (RPMI-8226): > 100 µM (inactive)
- GI50 (SK-OV-3): > 100 µM (inactive)
- GI50 (MDA-N): > 100 µM (inactive)
- GI50 (HT-29): > 100 µM (inactive)
- GI50 (K562): > 100 µM (inactive)
- GI50 (SNB-19): > 100 µM (inactive)
- GI50 (IGROV-1): > 100 µM (inactive)
- GI50 (KM12): > 100 µM (inactive)
- GI50 (M14): > 100 µM (inactive)
- GI50 (HL-60): 60.8 µM (inactive)
- GI50 (SK-MEL-2): > 100 µM (inactive)
- GI50 (Hs-578T): > 100 µM (inactive)
- GI50 (T47D): > 100 µM (inactive)
- GI50 (TK-10): > 100 µM (inactive)
- GI50 (SF-295): > 100 µM (inactive)
- GI50 (SN12C): > 100 µM (inactive)
- GI50 (HCC 2998): > 100 µM (inactive)
- GI50 (A549): > 100 µM (inactive)
- GI50 (NCI-H226): > 100 µM (inactive)
- GI50 (HCT-15): > 100 µM
- GI50 (MDA-MB-435): > 100 µM (inactive)
- GI50 (SF-268): > 100 µM (inactive)
- GI50 (NCI-H23): > 100 µM (inactive)
- GI50 (HOP-62): > 100 µM (inactive)
- GI50 (SF-539): > 100 µM (inactive)
- GI50 (DU-145): > 100 µM (inactive)
- GI50 (NCI-H522): 47.8 µM (inactive)
- GI50 (CCRF-CEM): > 100 µM (inactive)
- GI50 (CAKI-1): > 100 µM (inactive)
- GI50 (OVCAR-8): > 100 µM (inactive)
- GI50 (MDA-MB-231): > 100 µM (inactive)
- GI50 (PC-3): > 100 µM (inactive)

SMILES: CCOC(=O)c1nnsc1N/N=C\c1ccc([N+](=O)[O-])cc1
- GI50 (OVCAR-4): > 100 µM (inactive)
- GI50 (BT-549): > 100 µM (inactive)
- GI50 (EKVX): > 100 µM (inactive)
- GI50 (UACC-62): > 100 µM (inactive)
- GI50 (SW-620): > 100 µM (inactive)
- GI50 (NCI/ADR-RES): > 100 µM (inactive)
- GI50 (ACHN): > 100 µM (inactive)
- GI50 (786-0): 80 µM (inactive)
- GI50 (RXF 393): > 100 µM (inactive)
- GI50 (UO-31): > 100 µM (inactive)
- GI50 (SNB-75): 44.5 µM (inactive)
- GI50 (U-251): > 100 µM (inactive)
- GI50 (HCT-116): > 100 µM (inactive)
- GI50 (NCI-H460): > 100 µM (inactive)
- GI50 (SK-MEL-5): > 100 µM (inactive)
- GI50 (MCF7): > 100 µM (inactive)
- GI50 (SK-MEL-28): > 100 µM (inactive)
- GI50 (MOLT-4): > 100 µM (inactive)
- GI50 (UACC-257): > 100 µM (inactive)
- GI50 (OVCAR-5): > 100 µM (inactive)
- GI50 (OVCAR-3): > 100 µM (inactive)
- GI50 (RPMI-8226): > 100 µM (inactive)
- GI50 (SK-OV-3): > 100 µM (inactive)
- GI50 (MDA-N): > 100 µM (inactive)
- GI50 (HT-29): > 100 µM (inactive)
- GI50 (K562): > 100 µM (inactive)
- GI50 (SNB-19): 70.1 µM (inactive)
- GI50 (IGROV-1): > 100 µM (inactive)
- GI50 (KM12): > 100 µM (inactive)
- GI50 (M14): > 100 µM (inactive)
- GI50 (SK-MEL-2): > 100 µM (inactive)
- GI50 (Hs-578T): > 100 µM (inactive)
- GI50 (T47D): > 100 µM (inactive)
- GI50 (TK-10): > 100 µM (inactive)
- GI50 (SF-295): > 100 µM (inactive)
- GI50 (SN12C): > 100 µM (inactive)
- GI50 (HCC 2998): > 100 µM (inactive)
- GI50 (A549): > 100 µM (inactive)
- GI50 (NCI-H226): > 100 µM (inactive)
- GI50 (HCT-15): > 100 µM
- GI50 (MDA-MB-435): > 100 µM (inactive)
- GI50 (Malme-3M): > 100 µM (inactive)
- GI50 (SF-268): 77.4 µM (inactive)
- GI50 (NCI-H23): > 100 µM (inactive)
- GI50 (HOP-62): 60 µM (inactive)
- GI50 (COLO 205): > 100 µM (inactive)
- GI50 (DU-145): > 100 µM (inactive)
- GI50 (NCI-H522): > 100 µM (inactive)
- GI50 (CCRF-CEM): > 100 µM (inactive)
- GI50 (OVCAR-8): 54.7 µM (inactive)
- GI50 (MDA-MB-231): 79.8 µM (inactive)
- GI50 (PC-3): > 100 µM (inactive)

SMILES: Cc1nnc2sc(Cl)nn12
- GI50 (OVCAR-4): 16.8 µM (inactive)
- GI50 (BT-549): 17.7 µM (inactive)
- GI50 (EKVX): 24.9 µM (inactive)
- GI50 (UACC-62): 4.51 µM (inactive)
- GI50 (SW-620): 3.92 µM (inactive)
- GI50 (NCI/ADR-RES): 51.5 µM (inactive)
- GI50 (LOX IMVI): 10 µM (inactive)
- GI50 (ACHN): 23.3 µM (inactive)
- GI50 (786-0): 26.5 µM (inactive)
- GI50 (RXF 393): > 10 µM (inactive)
- GI50 (UO-31): 29.6 µM (inactive)
- GI50 (SNB-75): 45.3 µM (inactive)
- GI50 (U-251): 16.4 µM (inactive)
- GI50 (HCT-116): 8.95 µM (inactive)
- GI50 (NCI-H460): 18.5 µM (inactive)
- GI50 (SK-MEL-5): 12.6 µM (inactive)
- GI50 (MCF7): 13.3 µM (inactive)
- GI50 (SK-MEL-28): 19.4 µM (inactive)
- GI50 (MOLT-4): 5.65 µM (inactive)
- GI50 (UACC-257): > 10 µM (inactive)
- GI50 (OVCAR-5): 23 µM (inactive)
- GI50 (OVCAR-3): 19 µM (inactive)
- GI50 (RPMI-8226): 6.1 µM (inactive)
- GI50 (SK-OV-3): 17.3 µM (inactive)
- GI50 (MDA-N): 20.2 µM (inactive)
- GI50 (HT-29): 16.7 µM (inactive)
- GI50 (K562): 8.05 µM (inactive)
- GI50 (SNB-19): 44.8 µM (inactive)
- GI50 (IGROV-1): 16.4 µM (inactive)
- GI50 (KM12): 14.5 µM (inactive)
- GI50 (M14): 13.6 µM (inactive)
- GI50 (SK-MEL-2): 24.1 µM (inactive)
- GI50 (Hs-578T): 39.5 µM (inactive)
- GI50 (T47D): 22.9 µM (inactive)
- GI50 (TK-10): 27.7 µM (inactive)
- GI50 (SF-295): 17.7 µM (inactive)
- GI50 (SN12C): 32.4 µM (inactive)
- GI50 (HCC 2998): 15.5 µM (inactive)
- GI50 (A549): 26.1 µM (inactive)
- GI50 (NCI-H226): 28.6 µM (inactive)
- GI50 (HCT-15): 19.3 µM
- GI50 (MDA-MB-435): 7.64 µM (inactive)
- GI50 (Malme-3M): 22.1 µM (inactive)
- GI50 (NCI-H23): 17.3 µM (inactive)
- GI50 (HOP-62): 38 µM (inactive)
- GI50 (COLO 205): 14.5 µM (inactive)
- GI50 (SF-539): 20.9 µM (inactive)
- GI50 (DU-145): 34.4 µM (inactive)
- GI50 (NCI-H522): 10 µM (inactive)
- GI50 (CCRF-CEM): 3.85 µM (inactive)
- GI50 (CAKI-1): 21 µM (inactive)
- GI50 (A498): 31.3 µM (inactive)
- GI50 (OVCAR-8): 32.9 µM (inactive)
- GI50 (MDA-MB-231): 22.1 µM (inactive)
- GI50 (PC-3): 17.2 µM (inactive)

Reference: ChEMBL document CHEMBL1201862, “PubChem BioAssay data set” (2004)
